Source: patent publication US20160296499A1, “Spiroindoline Antiparasitic Derivatives” (ZOETIS SERVICES LLC, priority 2013, published 2016)
Where two headings read alike, the source gives them in different places.

Tests used:
[1] = target: T1, bovine vesicular acetylcholine transporter (VAChT) (Bos taurus, UniProt E1BK36); assay: Radioligand Binding Assay; settings: Bovine binding Ki, CHO-K1 membranes with recombinant bovine VAChT, [3H]Compound X6 0.3 nM
T1 sequence (E1BK36 1-524): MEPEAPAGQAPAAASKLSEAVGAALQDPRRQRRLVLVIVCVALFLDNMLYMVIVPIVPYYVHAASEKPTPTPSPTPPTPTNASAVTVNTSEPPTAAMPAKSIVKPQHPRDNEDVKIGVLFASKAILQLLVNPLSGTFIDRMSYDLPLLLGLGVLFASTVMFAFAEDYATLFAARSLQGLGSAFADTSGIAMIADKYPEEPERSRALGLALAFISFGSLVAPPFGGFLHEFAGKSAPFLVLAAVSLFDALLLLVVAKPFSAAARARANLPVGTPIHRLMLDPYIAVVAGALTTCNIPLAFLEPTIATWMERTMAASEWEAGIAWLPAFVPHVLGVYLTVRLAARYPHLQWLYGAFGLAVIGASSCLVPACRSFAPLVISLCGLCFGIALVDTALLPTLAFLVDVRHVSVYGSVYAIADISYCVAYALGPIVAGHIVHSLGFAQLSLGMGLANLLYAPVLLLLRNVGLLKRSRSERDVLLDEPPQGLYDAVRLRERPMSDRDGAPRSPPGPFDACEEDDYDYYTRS

Haemonchus contortus L3 = assay: Haemonchus contortus, Larvae Stage 3 (HcL3) In Vitro Assay; settings: Haemonchus contortus
[2] = test system: Dirofilaria immitis microfilariae; assay: Dirofilaria immitis, Microfilariae (DiMF) In Vitro Assay; settings: Dirofilaria immitis
[3] = 96 h, read-out: HcL3 MEC, Minimal Effective Concentration whereby worm motility is inhibited by approximately 70%, 37° C., tested 0.001-100 μM
[4] = 72 h, read-out: Di MF, MEC, decrease in microfilariae motility by visual assessment, curve starting at 100 μM
[5] = 96 hours, 37° C., read-out: HcL3 MEC

COc1nccc2c1C1(CCN(C/C=C/c3ccc(Cl)c(Cl)c3)CC1)CN2C(=O)NCc1ccnc(Cl)c1 [Example 68, (E)-N-((2-chloropyridin-4-yl)methyl)-1-(3-(3,4-dichlorophenyl)allyl)-4′-methoxyspiro[piperidine-4,3′-pyrrolo[3,2-c]pyridine]-1′(2′H)-carboxamide]
Ki [1]: 815 nM | minimal effective concentration (Haemonchus contortus L3; [3]): 33 µM | minimal effective concentration [2, 4]: 1.3 µM

O=C(NCc1ccnc(F)c1)N1CC2(CCN(C/C=C/c3ccc(Cl)cc3)CC2)c2cc(F)c(Cl)cc21 [Example 69, (E)-6-chloro-1′-(3-(4-chlorophenyl)allyl)-5-fluoro-N-((2-fluoropyridin-4-yl)methyl)spiro[indoline-3,4′-piperidine]-1-carboxamide]
Ki [1]: 55.2 nM | minimal effective concentration (Haemonchus contortus L3; [3]): 2.5 µM | minimal effective concentration [2, 4]: 6.5 µM

O=C(NCc1ccnc(F)c1)N1CC2(CCN(C/C=C/c3ccc(Cl)cc3)CC2)c2cc(Cl)c(Cl)cc21 [Example 70, (E)-5,6-dichloro-1′-(3-(4-chlorophenyl)allyl)-N-((2-fluoropyridin-4-yl)methyl)spiro[indoline-3,4′-piperidine]-1-carboxamide]
Ki [1]: 252 nM | minimal effective concentration (Haemonchus contortus L3; [3]): 3.3 µM | minimal effective concentration [2, 4]: 7.6 µM

O=C(NCc1ccnc(F)c1)N1CC2(CCN(C/C=C/c3ccc(Cl)cc3)CC2)c2cc(Cl)c(F)cc21 [Example 71, (E)-5-chloro-1′-(3-(4-chlorophenyl)allyl)-6-fluoro-N-((2-fluoropyridin-4-yl)methyl)spiro[indoline-3,4′-piperidine]-1-carboxamide]
Ki [1]: 31.4 nM | minimal effective concentration (Haemonchus contortus L3; [3]): 3.3 µM | minimal effective concentration [2, 4]: 3.3 µM

N#Cc1ccc(/C=C/CN2CCC3(CC2)CN(C(=O)NCc2ccnc(Cl)c2)c2cc(C(F)(F)F)c(Cl)cc23)cc1 [Example 72, (E)-5-chloro-N-((2-chloropyridin-4-yl)methyl)-1′-(3-(4-cyanophenyl)allyl)-6-(trifluoromethyl)spiro[indoline-3,4′-piperidine]-1-carboxamide]
Ki [1]: 27 nM | minimal effective concentration (Haemonchus contortus L3; [3]): 10 µM | minimal effective concentration [2, 4]: 3.3 µM

O=C(NCc1ccnc(F)c1)N1CC2(CCN(C/C=C/c3ccc(Cl)cc3)CC2)c2ccc(-c3ccccc3OC(F)(F)F)cc21 [Example 73, (E)-1′-(3-(4-chlorophenyl)allyl)-N-((2-fluoropyridin-4-yl)methyl)-6-(2-(trifluoromethoxy)phenyl)spiro[indoline-3,4′-piperidine]-1-carboxamide]
Ki [1]: 29.5 nM | minimal effective concentration (Haemonchus contortus L3; [3]): 100 µM | minimal effective concentration [2, 4]: 3.3 µM

O=C(NCc1ccnc(Cl)c1)N1CC2(CCN(C/C=C/c3ccc(Cl)cc3)CC2)c2cc(-n3ccccc3=O)ccc21 [Example 74, (E)-1′-(3-(4-chlorophenyl)allyl)-N-((2-chloropyridin-4-yl)methyl)-5-(2-oxopyridin-1(2H)-yl)spiro[indoline-3,4′-piperidine]-1-carboxamide]
Ki [1]: 11600 nM | minimal effective concentration (Haemonchus contortus L3; [3]): 100 µM | minimal effective concentration [2, 4]: 2.4 µM

O=C(NCc1ccnc(F)c1)N1CC2(CCN(C/C=C/c3ccc(Cl)cc3)CC2)c2cc(-n3ccccc3=O)ccc21 [Example 75, (E)-1′-(3-(4-chlorophenyl)allyl)-N-((2-fluoropyridin-4-yl)methyl)-5-(2-oxopyridin-1(2H)-yl)spiro[indoline-3,4′-piperidine]-1-carboxamide]
Ki [1]: 11600 nM | minimal effective concentration (Haemonchus contortus L3; [3]): 100 µM | minimal effective concentration [2, 4]: 4.4 µM

O=C(NCc1ccnc(Cl)c1)N1CC2(CCN(C/C=C/c3ccc(Cl)cc3)CC2)c2cc(N3CCCC3)ccc21 [Example 76, (E)-1′-(3-(4-chlorophenyl)allyl)-N-((2-chloropyridin-4-yl)methyl)-5-(pyrrolidin-1-yl)spiro[indoline-3,4′-piperidine]-1-carboxamide]
Ki [1]: 1420 nM | minimal effective concentration (Haemonchus contortus L3; [3]): 100 µM | minimal effective concentration [2, 4]: 1.8 µM

O=C(NCc1ccnc(F)c1)N1CC2(CCN(C/C=C/c3ccc(Cl)cc3)CC2)c2cc(OC(F)(F)F)ccc21 [Example 77, (E)-1′-(3-(4-chlorophenyl)allyl)-N-((2-fluoropyridin-4-yl)methyl)-5-(trifluoromethoxy)spiro[indoline-3,4′-piperidine]-1-carboxamide]
Ki [1]: 870 nM | minimal effective concentration (Haemonchus contortus L3; [5]): 5.7 µM | minimal effective concentration ([2]; 72 hours, read-out: Di MF): 3.3 µM

O=C(NCc1ccnc(Cl)c1)N1CC2(CCN(C/C=C/c3ccc(Cl)cc3)CC2)c2cc(S(=O)(=O)C(F)(F)F)ccc21 [Example 78, (E)-1′-(3-(4-chlorophenyl)allyl)-N-((2-chloropyridin-4-yl)methyl)-5-(trifluoromethylsulfonyl)spiro[indoline-3,4′-piperidine]-1-carboxamide]
Ki [1]: 1290 nM | minimal effective concentration (Haemonchus contortus L3; [3]): 100 µM | minimal effective concentration [2, 4]: 1 µM

CS(=O)(=O)c1ccc2c(c1)C1(CCN(C/C=C/c3ccc(Cl)cc3)CC1)CN2C(=O)NCc1ccnc(Cl)c1 [Example 79, (E)-1′-(3-(4-chlorophenyl)allyl)-N-((2-chloropyridin-4-yl)methyl)-5-(methylsulfonyl)spiro[indoline-3,4′-piperidine]-1-carboxamide]
Ki [1]: 11300 nM | minimal effective concentration (Haemonchus contortus L3; [3]): 100 µM | minimal effective concentration [2, 4]: 10 µM

O=C(NCc1ccnc(Cl)c1)N1CC2(CCN(C/C=C/c3ccc(Cl)cc3)CC2)c2cc(SC(F)(F)F)ccc21 [Example 80, (E)-1′-(3-(4-chlorophenyl)allyl)-N-((2-chloropyridin-4-yl)methyl)-5-(trifluoromethylthio)spiro[indoline-3,4′-piperidine]-1-carboxamide]
Ki [1]: 191 nM | minimal effective concentration (Haemonchus contortus L3; [3]): 100 µM | minimal effective concentration [2, 4]: 10 µM

O=C(NCc1ccnc(Cl)c1)N1CC2(CCN(C/C=C/c3ccc(Cl)cc3)CC2)c2cc(-c3nccs3)ccc21 [Example 81, (E)-1′-(3-(4-chlorophenyl)allyl)-N-((2-chloropyridin-4-yl)methyl)-5-(thiazol-2-yl)spiro[indoline-3,4′-piperidine]-1-carboxamide]
Ki [1]: 308 nM | minimal effective concentration (Haemonchus contortus L3; [3]): 100 µM | minimal effective concentration [2, 4]: 7.6 µM

O=C(NCc1ccnc(F)c1)N1CC2(CCN(C/C=C/c3ccc(Cl)cc3)CC2)c2cc(C(F)(F)F)ccc21 [Example 82, (E)-1′-(3-(4-chlorophenyl)allyl)-N-((2-fluoropyridin-4-yl)methyl)-5-(trifluoromethyl)spiro[indoline-3,4′-piperidine]-1-carboxamide]
Ki [1]: 572 nM | minimal effective concentration (Haemonchus contortus L3; [3]): 7.6 µM | minimal effective concentration [2, 4]: 4.4 µM

O=C(NCc1ccnc(F)c1)N1CC2(CCN(C/C=C/c3ccc(Cl)cc3)CC2)c2cc(-c3cc[nH]c(=O)c3)ccc21 [Example 83, (E)-1′-(3-(4-chlorophenyl)allyl)-N-((2-fluoropyridin-4-yl)methyl)-5-(2-oxo-1,2-dihydropyridin-4-yl)spiro[indoline-3,4′-piperidine]-1-carboxamide]
Ki [1]: 11200 nM | minimal effective concentration (Haemonchus contortus L3; [3]): 100 µM | minimal effective concentration [2, 4]: 6.9 µM

O=C(NCc1ccnc(F)c1)N1CC2(CCN(C/C=C/c3ccc(Cl)cc3)CC2)c2cc(C3CC3)ccc21 [Example 84, (E)-1′-(3-(4-chlorophenyl)allyl)-5-cyclopropyl-N-((2-fluoropyridin-4-yl)methyl)spiro[indoline-3,4′-piperidine]-1-carboxamide]
Ki [1]: 680 nM | minimal effective concentration (Haemonchus contortus L3; [5]): 100 µM | minimal effective concentration ([2]; 72 hours, read-out: Di MF): 3.3 µM

O=C(NCc1cnc(Cl)s1)N1CC2(CCN(C/C=C/c3ccc(Cl)cc3)CC2)c2cc(C(F)(F)F)ccc21 [Example 85, (E)-1′-(3-(4-chlorophenyl)allyl)-N-((2-chlorothiazol-5-yl)methyl)-5-(trifluoromethyl)spiro[indoline-3,4′-piperidine]-1-carboxamide]
Ki [1]: 226 nM | minimal effective concentration (Haemonchus contortus L3; [5]): 18.2 µM | minimal effective concentration ([2]; 72 hours, read-out: Di MF): 10 µM

N#Cc1cc2c(cn1)N(C(=O)NCc1ccnc(Cl)c1)CC21CCN(C/C=C/c2ccc(Cl)cc2)CC1 [Example 86, (E)-1-(3-(4-chlorophenyl)allyl)-N-((2-chloropyridin-4-yl)methyl)-5′-cyanospiro[piperidine-4,3′-pyrrolo[2,3-c]pyridine]-1′(2′H)-carboxamide]
Ki [1]: 31.7 nM | minimal effective concentration (Haemonchus contortus L3; [3]): 3.3 µM | minimal effective concentration [2, 4]: 5.7 µM

N#Cc1ccc2c(n1)C1(CCN(C/C=C/c3ccc(Cl)cc3)CC1)CN2C(=O)NCc1ccnc(Cl)c1 [Example 87, (E)-1-(3-(4-chlorophenyl)allyl)-N-((2-chloropyridin-4-yl)methyl)-5′-cyanospiro[piperidine-4,3′-pyrrolo[3,2-b]pyridine]-1′(2′H)-carboxamide]
Ki [1]: 38.1 nM | minimal effective concentration (Haemonchus contortus L3; [3]): 18.2 µM | minimal effective concentration [2, 4]: 5.7 µM

O=C(NCc1ccnc(Cl)c1)N1CC2(CCN(C/C=C/c3ccc(Cl)cc3)CC2)c2c(OC(F)(F)F)cccc21 [Example 88, (E)-1′-(3-(4-chlorophenyl)allyl)-N-((2-chloropyridin-4-yl)methyl)-4-(trifluoromethoxy)spiro[indoline-3,4′-piperidine]-1-carboxamide]
Ki [1]: 1130 nM | minimal effective concentration (Haemonchus contortus L3; [3]): 100 µM | minimal effective concentration [2, 4]: 3.3 µM
